In US8252832B2, “Kinesin inhibitors as cancer therapeutics” (Novartis AG, priority 2007, dated 2012):
Read-outs that look alike come from different tables or passages of the source.

Test system: panel of cell lines and tumor explants
Experiment: Soft agar (clonogenic) assay on cell lines and tumor explants
Format: cell-based, human
Details: Homo sapiens
Procedure: Compound IIa was tested against a panel of cell lines and tumor explants in a soft agar assay as described in Fiebig, H. H., Maier, A., and Burger, A. M. (Clonogenic assay with established human tumour xenorafts: correlation of in vitro to in vivo activity as a basis for anticancer drug discovery, Eur. J. Cancer 40, 802-820 (2004).) Table 16 lists the type of cancer, the name of the sample, its GI50 (concentration needed to achieve 50% growth inhibition) value in the assay, the logarithm of the GI50 (log(GI50), and the relative sensitivity of each sample (Differential). The differential is calculated by subtracting the log(GI50) for each cell line from the average log(GI50) across the entire panel (0.236 in this case); a positive value indicates a sample that is more sensitive than average, whereas a negative value indicates a sample that is less sensitive than average.

CC(C)(C)[C@H](c1nc(-c2cc(F)ccc2F)cn1Cc1ccccc1)N(CC[C@H](N)CF)C(=O)CO [Compound IIa]
GI50 (MOLT-4, Leukemia (ALL), sample MOLT4, read-out: GI50): 0.877 nM
GI50 (Mean across the entire panel, read-out: GI50): 1.72 nM
GI50 (Melanoma, sample 462, GI50 in nM, read-out: log(GI50) (converted)): ≥ 10 nM
GI50 (Melanoma, sample 462, read-out: GI50): 10 nM
GI50 (Melanoma, sample 989, GI50 in nM, read-out: log(GI50) (converted)): 12.7 nM
GI50 (Melanoma, sample 989, read-out: GI50): 12.7 nM
GI50 (Melanoma, sample 1341, GI50 in nM, read-out: log(GI50) (converted)): ≥ 10 nM
GI50 (Melanoma, sample 1341, read-out: GI50): 10 nM
GI50 (NSCLC, sample 211, GI50 in nM, read-out: log(GI50) (converted)): 0.216 nM
GI50 (NSCLC, sample 211, read-out: GI50): 0.216 nM
GI50 (NSCLC, sample 289, GI50 in nM, read-out: log(GI50) (converted)): 4.9 nM
GI50 (NSCLC, sample 289, read-out: GI50): 4.9 nM
GI50 (NSCLC, sample 526, GI50 in nM, read-out: log(GI50) (converted)): 1.26 nM
GI50 (NSCLC, sample 526, read-out: GI50): 1.26 nM
GI50 (NSCLC, sample 629, GI50 in nM, read-out: log(GI50) (converted)): ≥ 10 nM
GI50 (NSCLC, sample 629, read-out: GI50): 10 nM
GI50 (NSCLC, sample 677, GI50 in nM, read-out: log(GI50) (converted)): 1.16 nM
GI50 (NSCLC, sample 677, read-out: GI50): 1.16 nM
GI50 (NSCLC, sample 737, GI50 in nM, read-out: log(GI50) (converted)): 3.07 nM
GI50 (NSCLC, sample 737, read-out: GI50): 3.07 nM
GI50 (NSCLC, sample 1012, GI50 in nM, read-out: log(GI50) (converted)): 0.927 nM
GI50 (NSCLC, sample 1012, read-out: GI50): 0.926 nM
GI50 (NSCLC, sample 1176, GI50 in nM, read-out: log(GI50) (converted)): 3 nM
GI50 (NSCLC, sample 1176, read-out: GI50): 3 nM
GI50 (NSCLC, sample 1422, GI50 in nM, read-out: log(GI50) (converted)): 0.728 nM
GI50 (NSCLC, sample 1422, read-out: GI50): 0.728 nM
GI50 (NSCLC, sample 1647, GI50 in nM, read-out: log(GI50) (converted)): 16.7 nM
GI50 (NSCLC, sample 1647, read-out: GI50): 16.8 nM
GI50 (Ovarian, sample 899, GI50 in nM, read-out: log(GI50) (converted)): ≥ 10 nM
GI50 (Ovarian, sample 899, read-out: GI50): 10 nM
GI50 (Ovarian, sample 1353, GI50 in nM, read-out: log(GI50) (converted)): ≥ 10 nM
GI50 (Ovarian, sample 1353, read-out: GI50): 10 nM
GI50 (PC-3M, Prostate, sample PC3M, GI50 in nM, read-out: log(GI50) (converted)): 0.424 nM
GI50 (PC-3M, Prostate, sample PC3M, read-out: GI50): 0.424 nM
GI50 (Pancreas, sample 546, GI50 in nM, read-out: log(GI50) (converted)): 2.59 nM
GI50 (Pancreas, sample 546, read-out: GI50): 2.59 nM
GI50 (Pancreas, sample 736, GI50 in nM, read-out: log(GI50) (converted)): 1.26 nM
GI50 (Pancreas, sample 736, read-out: GI50): 1.26 nM
GI50 (Pancreas, sample 1657, GI50 in nM, read-out: log(GI50) (converted)): 27 nM
GI50 (Pancreas, sample 1657, read-out: GI50): 27 nM
GI50 (Pancreas, sample 1861, GI50 in nM, read-out: log(GI50) (converted)): 0.622 nM
GI50 (Pancreas, sample 1861, read-out: GI50): 0.623 nM
GI50 (Pancreas, sample 1869, GI50 in nM, read-out: log(GI50) (converted)): 10.9 nM
GI50 (Pancreas, sample 1869, read-out: GI50): 10.9 nM
GI50 (Pancreas, sample 1872, GI50 in nM, read-out: log(GI50) (converted)): 0.282 nM
GI50 (Pancreas, sample 1872, read-out: GI50): 0.282 nM
GI50 (Pancreas, sample 1876, GI50 in nM, read-out: log(GI50) (converted)): 0.337 nM
GI50 (Pancreas, sample 1876, read-out: GI50): 0.337 nM
GI50 (Pancreas, sample 1881, GI50 in nM, read-out: log(GI50) (converted)): 2.32 nM
GI50 (Pancreas, sample 1881, read-out: GI50): 2.32 nM
GI50 (Pancreas, sample 1887, GI50 in nM, read-out: log(GI50) (converted)): ≥ 10 nM
GI50 (Pancreas, sample 1887, read-out: GI50): 10 nM
GI50 (Pancreas, sample 1900, GI50 in nM, read-out: log(GI50) (converted)): 16.9 nM
GI50 (Pancreas, sample 1900, read-out: GI50): 16.9 nM
GI50 (Pancreas, sample 1912, GI50 in nM, read-out: log(GI50) (converted)): 0.112 nM
GI50 (Pancreas, sample 1912, read-out: GI50): 0.112 nM
GI50 (Pancreas, sample 1937, GI50 in nM, read-out: log(GI50) (converted)): 0.185 nM
GI50 (Pancreas, sample 1937, read-out: GI50): 0.185 nM
GI50 (Prostate, sample MRIH1579, GI50 in nM, read-out: log(GI50) (converted)): ≥ 10 nM
GI50 (Prostate, sample MRIH1579, read-out: GI50): 10 nM
GI50 (SCLC, sample 538, GI50 in nM, read-out: log(GI50) (converted)): 0.339 nM
GI50 (SCLC, sample 538, read-out: GI50): 0.339 nM
GI50 (SCLC, sample 573, GI50 in nM, read-out: log(GI50) (converted)): 0.587 nM
GI50 (SCLC, sample 573, read-out: GI50): 0.587 nM
GI50 (SCLC, sample 615, GI50 in nM, read-out: log(GI50) (converted)): 0.082 nM
GI50 (SCLC, sample 615, read-out: GI50): 0.082 nM
GI50 (SCLC, sample 650, GI50 in nM, read-out: log(GI50) (converted)): 0.376 nM
GI50 (SCLC, sample 650, read-out: GI50): 0.376 nM
GI50 (SCLC, sample H69, GI50 in nM, read-out: log(GI50) (converted)): 0.269 nM
GI50 (SCLC, sample H69, read-out: GI50): 0.269 nM
